Source: patent US20100010024A1, “USE OF1,4-DIARYL-DIHYDROPYRIMIDINE-2-ON DERIVATIVES FOR TREATING PULMONARY ARTERIAL HYPERTENSION” (Bayer Healthcare AG, priority 2006, published 2010)

Target: T1, human neutrophil elastase (HNE) (Homo sapiens, UniProt P08246)
T1 construct: purchased Serva, Heidelberg
T1 sequence (P08246 30-267): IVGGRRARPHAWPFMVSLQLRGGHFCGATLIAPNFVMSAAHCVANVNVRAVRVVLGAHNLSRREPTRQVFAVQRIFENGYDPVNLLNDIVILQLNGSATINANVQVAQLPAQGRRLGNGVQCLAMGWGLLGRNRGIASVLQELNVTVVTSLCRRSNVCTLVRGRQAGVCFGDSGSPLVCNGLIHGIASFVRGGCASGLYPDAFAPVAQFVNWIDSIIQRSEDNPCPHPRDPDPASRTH
Assay: In vitro HNE inhibition assay
Format: biochemical
Settings: 80 pM HNE, 20 μM MeOSuc-Ala-Ala-Pro-Val-AMC, 37° C., 2 hours, fluorescence
Experimental: B-1. In vitro HNE Inhibition Assay
The potency of the compounds of the invention is ascertained in an in vitro inhibition assay. The HNE-mediated amidolytic cleavage of a suitable peptide substrate leads in this connection to an increase in the fluorescent light. The signal intensity of the fluorescent light is directly proportional to the enzyme activity.
Enzyme (80 pM HNE; from Serva, Heidelberg) and substrate (20 μM MeOSuc-Ala-Ala-Pro-Val-AMC; from Bachem, Weil am Rhein) are incubated in an assay volume of in total 50 μl of assay buffer (0.1 M HEPES pH 7.4, 0.5 M NaCl, 0.1% w/v BSA, 1% v/v DMSO) in a 384-well microtiter plate in the presence and absence of the test substance at 37° C. for 2 hours. […] The IC50 values are determined by plotting the intensity of the fluorescent light against the active substance concentration.

**Q.** For `CC1=C(C(=O)C2CCC2)[C@@H](c2ccc(C#N)cc2)NC(=O)N1c1cccc(C(F)(F)F)c1` [Example 3, 4-{(4R)-5-(Cyclobutylcarbonyl)-6-methyl-2-oxo-1-[3-(trifluoromethyl)phenyl]-1,2,3,4-tetrahydropyrimidin-4-yl}benzonitrile], which IC50 is on record?
**A.** 14.8 nM

**Q.** `CC(=O)C1=C(C)N(c2ccc(F)c(C(F)(F)F)c2)C(=O)N[C@@H]1c1ccc(C#N)cc1` [Example 7, 4-{(4R)-5-Acetyl-1-[4-fluoro-3-(trifluoromethyl)phenyl]-6-methyl-2-oxo-1,2,3,4-tetrahydropyrimidin-4-yl}benzonitrile] was tested. Which IC50 did it give?
**A.** 5.2 nM

**Q.** `CC1=C(C(=O)C2CCC2)[C@@H](c2ccc(C#N)cc2)N(CC(=O)O)C(=O)N1c1cccc(C(F)(F)F)c1` [Example 8, [(6R)-6-(4-Cyanophenyl)-5-(cyclobutylcarbonyl)-4-methyl-2-oxo-3-[3-(trifluoromethyl)phenyl]-3,6-dihydropyrimidin-1(2H)-yl]acetic acid] was tested. Which IC50 did it give?
**A.** 4.3 nM

**Q.** With `CC1=C(C(=O)C(C)C)[C@@H](c2ccc(C#N)cc2)N(CC(=O)O)C(=O)N1c1cccc(C(F)(F)F)c1` [Example 16, [(6R)-6-(4-Cyanophenyl)-5-isobutyryl-4-methyl-2-oxo-3-[3-(trifluoromethyl)phenyl]-3,6-dihydropyrimidin-1(2H)-yl]acetic acid] as the compound, how does the IC50 read?
**A.** 2.9 nM

**Q.** `CC(=O)C1=C(C)N(c2cccc(C(F)(F)F)c2)C(=O)N(Cc2cccc(C(=O)O)c2)[C@@H]1c1ccc(C#N)cc1` [Example 17, 3-{[(6R)-5-Acetyl-6-(4-cyanophenyl)-4-methyl-2-oxo-3-[3-(trifluoromethyl)phenyl]-3,6-dihydropyrimidin-1(2H)-yl]methyl}benzoic acid] was tested. Which IC50 did it give?
**A.** 3.9 nM

**Q.** Which IC50 does the source give for `CC(=O)C1=C(C)N(c2cccc(C(F)(F)F)c2)C(=O)N(Cc2ccc(C(=O)O)cc2)[C@@H]1c1ccc(C#N)cc1` [Example 18, 4-{[(6R)-5-Acetyl-6-(4-cyanophenyl)-4-methyl-2-oxo-3-[3-(trifluoromethyl)phenyl]-3,6-dihydropyrimidin-1(2H)-yl]methyl}benzoic acid] here?
**A.** 2.9 nM

**Q.** For `CC(=O)C1=C(C)N(c2cccc(C(F)(F)F)c2)C(=O)N(CC(N)=O)[C@@H]1c1ccc(C#N)cc1` [Example 21, 2-[(6R)-5-Acetyl-6-(4-cyanophenyl)-4-methyl-2-oxo-3-[3-(trifluoromethyl)phenyl]-3,6-dihydropyrimidine-1(2H)-yl]acetamide], which IC50 is on record?
**A.** 5.5 nM

**Q.** How did the IC50 turn out when `CC1=C(C(=O)OCCO)[C@@H](c2ccc(C#N)cc2)N(CC(N)=O)C(=O)N1c1cccc(C(F)(F)F)c1` [Example 29] was run?
**A.** 1.4 nM

**Q.** With `CCOC(=O)C1=C(C)N(c2cccc(C(F)(F)F)c2)C(=O)N(CC(=O)N(C)C)[C@@H]1c1ccc(C#N)cc1` [Example 30, Ethyl(4R)-4-(4-cyanophenyl)-3-[2-(dimethylamino)-2-oxoethyl]-6-methyl-2-oxo-1-[3-(trifluoromethyl)phenyl]-1,2,3,4-tetrahydropyrimidine-5-carboxylate] as the compound, how does the IC50 read?
**A.** 0.4 nM
